The experiment concerns E. coli ESBL+. In words: In vitro MIC, 2010 surveillance isolates. It counts as cell-based, Escherichia coli. To be noted: E. coli.

Consider `CC(C)(O/N=C(\C(=O)N[C@@H]1C(=O)N2C(C(=O)[O-])=C(C[n+]3ccccc3)CS[C@H]12)c1csc(N)n1)C(=O)O` [ceftazidime], for which the “resistance rates for ESBL-producing clinical isolates” value is 50%.
